Our source for the IC50 values is patent US10487092B2, “Pyrazolopyridinamines as MKNK1 and MKNK2 inhibitors” (BAYER PHARMA AKTIENGESELLSCHAFT, priority 2014, dated 2019).

A value given as a limit tells only on which side of the number the result lay.

Chain of human full-length MKNK1 (Q9BUB5 other isoform, or with tags, fused parts or gaps T344D): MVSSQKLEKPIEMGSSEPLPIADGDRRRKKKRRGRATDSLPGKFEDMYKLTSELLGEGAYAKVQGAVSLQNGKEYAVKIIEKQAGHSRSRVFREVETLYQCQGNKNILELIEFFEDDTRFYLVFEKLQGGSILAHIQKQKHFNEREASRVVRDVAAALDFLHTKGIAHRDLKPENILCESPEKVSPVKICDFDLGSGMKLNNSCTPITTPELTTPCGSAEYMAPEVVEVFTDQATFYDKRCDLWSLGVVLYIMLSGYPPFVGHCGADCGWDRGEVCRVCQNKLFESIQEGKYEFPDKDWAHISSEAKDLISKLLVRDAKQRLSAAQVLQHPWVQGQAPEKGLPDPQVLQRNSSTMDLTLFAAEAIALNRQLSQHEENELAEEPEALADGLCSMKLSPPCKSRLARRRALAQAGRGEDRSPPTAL

In this assay the target is human full-length MKNK1 (Homo sapiens (Human), UniProt Q9BUB5, T344D). The assay is described as follows: MKNK1 kinase high ATP assay (TR-FRET). In kind it is biochemical. The settings on record: high ATP (2 mM), 15 min preincubation with enzyme; read-out: MKNK1 IC50. The method, then:
MKNK1 Kinase High ATP Assay
MKNK1-inhibitory activity at high ATP of compounds of the present invention after their preincubation with MKNK1 was quantified employing the TR-FRET-based MKNK1 high ATP assay as described in the following paragraphs.
A recombinant fusion protein of Glutathione-S-Transferase (GST, N-terminally) and human full-length MKNK1 (amino acids 1-424 and T344D of accession number BAA 19885.1), expressed in insect cells using baculovirus expression system and purified via glutathione sepharose affinity chromatography, was purchased from Carna Biosciences (product no 02-145) and used as enzyme. As substrate for the kinase reaction the biotinylated peptide biotin-Ahx-IKKRKLTRRKSLKG (SEQ ID NO: 1, C-terminus in amide form) was used, which can be purchased e.g. from the company Biosyntan (Berlin-Buch, Germany).
For the assay 50 nL of a 100 fold concentrated solution of the test compound in DMSO was pipetted into a black low volume 384 well microtiter plate (Greiner Bio-One, Frickenhausen, Germany), 2 μL of a solution of MKNK1 in aqueous assay buffer [50 mM HEPES pH 7.5, 5 mM MgCl2, 1.0 mM dithiothreitol, 0.005% (v/v) Nonidet-P40 (Sigma)] was added and the mixture was incubated for 15 min at 22° C. to allow pre-binding of the test compounds to the enzyme before the start of the kinase reaction. Then the kinase reaction was started by the addition of 3 μL of a solution of adenosine-tri-phosphate (ATP, 3.3 mM=>final conc. in the 5 μL assay volume is 2 mM) and substrate (0.1 μM=>final conc. in the 5 μL assay volume is 0.06 μM) in assay buffer and the resulting mixture was incubated for a reaction time of 30 min at 22° C. The concentration of MKNK1 was adjusted depending of the activity of the enzyme lot and was chosen appropriate to have the assay in the linear range, typical concentrations were in the range of 0.003 μg/mL. The reaction was stopped by the addition of 5 μL of a solution of TR-FRET detection reagents (5 nM streptavidine-XL665 [Cisbio Bioassays, Codolet, France] and 1 nM anti-ribosomal protein S6 (pSer236)-antibody from Invitrogen [#44921G] and 1 nM LANCE EU-W1024 labeled ProteinG [Perkin-Elmer, product no. AD0071]) in an aqueous EDTA-solution (100 mM EDTA, 0.1% (w/v) bovine serum albumin in 50 mM HEPES pH 7.5).
The resulting mixture was incubated for 1 h at 22° C. to allow the formation of complex between the phosphorylated biotinylated peptide and the detection reagents. Subsequently the amount of phosphorylated substrate was evaluated by measurement of the resonance energy transfer from the Eu-chelate to the streptavidine-XL. Therefore, the fluorescence emissions at 620 nm and 665 nm after excitation at 350 nm were measured in a TR-FRET reader, e.g. a Rubystar (BMG Labtechnologies, Offenburg, Germany) or a Viewlux (Perkin-Elmer). The ratio of the emissions at 665 nm and at […] was taken as the measure for the amount of phosphorylated substrate. The data were normalised (enzyme reaction without inhibitor=0% inhibition, all other assay components but no enzyme=100% inhibition).
In the case of `CC(C)N(C)C(=O)[C@H]1CCc2c(sc3ncnc(Nc4cc5ccnn5cc4Cl)c23)C1` [Example 57, (7S)-4-[(6-Chloropyrazolo[1,5-a]pyridin-5-yl)amino]-N-methyl-N-(propan-2-yl)-5,6,7,8-tetrahydro[1]benzothieno[2,3-d]pyrimidine-7-carboxamide], the IC50 stood at 0.012 µM.
For the compound `COc1cn2nccc2cc1Nc1ncnc2sc3c(c12)CC[C@H](C(=O)N1C[C@H](O)[C@@H](O)C1)C3` [Example 108, [(3S,4S)-3,4-Dihydroxypyrrolidin-1-yl](7S)-4-[(6-methoxypyrazolo[1,5-a]pyridin-5-yl)amino]-5,6,7,8-tetrahydro[1]benzothieno[2,3-d]pyrimidin-7-ylmethanone], the IC50 was determined as 0.001 µM.
As to `O=C(O)[C@H]1CCc2c(sc3ncnc(Nc4ccn5nccc5c4)c23)C1` [Example 2, (7S)-4-(Pyrazolo[1,5-a]pyridin-5-ylamino)-5,6,7,8-tetrahydro[1]benzothieno[2,3-d]pyrimidine-7-carboxylic acid], the IC50 was 0.707 µM.
Take `COc1cn2nccc2cc1Nc1ncnc2sc3c(c12)CC[C@H](C(=O)N1CC[C@H](N(C)C)C1)C3` [Example 107, [(3S)-3-(Dimethylamino)pyrrolidin-1-yl](7S)-4-[(6-methoxypyrazolo[1,5-a]pyridin-5-yl)amino]-5,6,7,8-tetrahydro[1]benzothieno[2,3-d]pyrimidin-7-ylmethanone]: the IC50 is below 0.001 µM.
As for `CC1(O)CN(C(=O)[C@H]2CCc3c(sc4ncnc(Nc5cc6ccnn6cc5Cl)c34)C2)C1` [Example 52, (7S)-4-[(6-Chloropyrazolo[1,5-a]pyridin-5-yl)amino]-5,6,7,8-tetrahydro[1]benzothieno[2,3-d]pyrimidin-7-yl(3-hydroxy-3-methylazetidin-1-yl)methanone], the IC50 is 0.008 µM.
For `C[C@H]1CN(C(=O)[C@H]2CCc3c(sc4ncnc(Nc5ccn6nccc6c5)c34)C2)C[C@H](C)O1` [Example 9, [(2S,6S)-2,6-Dimethylmorpholin-4-yl][(7S)-4-(pyrazolo[1,5-a]pyridin-5-ylamino)-5,6,7,8-tetrahydro[1]benzothieno[2,3-d]pyrimidin-7-yl]methanone], the IC50 came out at 0.049 µM.
Turning to `CN(C)C(=O)C1CCc2c(sc3ncnc(Nc4ccn5nccc5c4)c23)C1` (racemic) [Example 1, (RS) N,N-Dimethyl-4-(pyrazolo[1,5-a]pyridin-5-ylamino)-5,6,7,8-tetrahydro[1]benzothieno[2,3-d]pyrimidine-7-carboxamide], the IC50 amounted to 0.064 µM.
`CN1C[C@@H]2C[C@H]1CN2C(=O)[C@H]1CCc2c(sc3ncnc(Nc4ccn5nccc5c4)c23)C1` [Example 38, [(1S,4S)-5-Methyl-2,5-diazabicyclo[2.2.1]hept-2-yl][(7S)-4-(pyrazolo[1,5-a]pyridin-5-ylamino)-5,6,7,8-tetrahydro[1]benzothieno[2,3-d]pyrimidin-7-yl]methanone]: the IC50 is 0.025 µM.
`COc1cn2nccc2cc1Nc1ncnc2sc3c(c12)CC[C@H](C(=O)NCC(F)F)C3` [Example 79, (7S)—N-(2,2-Difluoroethyl)-4-[(6-methoxypyrazolo[1,5-a]pyridin-5-yl)amino]-5,6,7,8-tetrahydro[1]benzothieno[2,3-d]pyrimidine-7-carboxamide]: the IC50 worked out at 0.003 µM.
The same measure for `CN(CCNC(=O)OC(C)(C)C)C(=O)[C@H]1CCc2c(sc3ncnc(Nc4ccn5nccc5c4)c23)C1` [Example 25, tert-Butyl [2-(methyl{[(7S)-4-(pyrazolo[1,5-a]pyridin-5-ylamino)-5,6,7,8-tetrahydro[1]benzothieno[2,3-d]pyrimidin-7-yl]carbonyl}amino)ethyl]carbamate]: 0.013 µM; for `COc1cn2nccc2cc1Nc1ncnc2sc3c(c12)CC[C@H](C(=O)N1C[C@H]2C[C@@H]1CO2)C3` [Example 124, (7S)-4-[(6-Methoxypyrazolo[1,5-a]pyridin-5-yl)amino]-5,6,7,8-tetrahydro[1]benzothieno[2,3-d]pyrimidin-7-yl[(1R,4R)-2-oxa-5-azabicyclo[2.2.1]hept-5-yl]methanone]: 0.001 µM; for `COc1cn2nccc2cc1Nc1ncnc2sc3c(c12)CC[C@H](C(=O)Nc1cccc(F)c1)C3` [Example 92, (7S)—N-(3-Fluorophenyl)-4-[(6-methoxypyrazolo[1,5-a]pyridin-5-yl)amino]-5,6,7,8-tetrahydro[1]benzothieno[2,3-d]pyrimidine-7-carboxamide]: 0.007 µM.
`COc1cn2nccc2cc1Nc1ncnc2sc3c(c12)CC[C@H](C(=O)Nc1ccc(Cl)c(Cl)c1)C3` [Example 90, (7S)—N-(3,4-Dichlorophenyl)-4-[(6-methoxypyrazolo[1,5-a]pyridin-5-yl)amino]-5,6,7,8-tetrahydro[1]benzothieno[2,3-d]pyrimidine-7-carboxamide]: the IC50 was 0.235 µM.
On to `C[C@H]1COCCN1C(=O)[C@H]1CCc2c(sc3ncnc(Nc4ccn5nccc5c4)c23)C1` [Example 7, [(3S)-3-Methylmorpholin-4-yl][(7S)-4-(pyrazolo[1,5-a]pyridin-5-ylamino)-5,6,7,8-tetrahydro[1]benzothieno[2,3-d]pyrimidin-7-yl]methanone], for which the IC50 was determined as 0.065 µM.
In the case of `O=C([C@H]1CCc2c(sc3ncnc(Nc4ccn5nccc5c4)c23)C1)N1C[C@@H]2C[C@H]1CO2` [Example 36, (1S,4S)-2-Oxa-5-azabicyclo[2.2.1]hept-5-yl[(7S)-4-(pyrazolo[1,5-a]pyridin-5-ylamino)-5,6,7,8-tetrahydro[1]benzothieno[2,3-d]pyrimidin-7-yl]methanone], the IC50 amounted to 0.091 µM.
With `CCCCN(C)C(=O)[C@H]1CCc2c(sc3ncnc(Nc4cc5ccnn5cc4Cl)c23)C1` [Example 49, (7S)—N-Butyl-4-[(6-chloropyrazolo[1,5-a]pyridin-5-yl)amino]-N-methyl-5,6,7,8-tetrahydro[1]benzothieno[2,3-d]pyrimidine-7-carboxamide] the figure was 0.015 µM; with `C[C@@H]1COCCN1C(=O)[C@H]1CCc2c(sc3ncnc(Nc4cc5ccnn5cc4Cl)c23)C1` [Example 77, (7S)-4-[(6-Chloropyrazolo[1,5-a]pyridin-5-yl)amino]-5,6,7,8-tetrahydro[1]benzothieno[2,3-d]pyrimidin-7-yl[(3R)-3-methylmorpholin-4-yl]methanone], 0.021 µM.
The same measure for `COc1cn2nccc2cc1Nc1ncnc2sc3c(c12)CC[C@H](C(=O)NCCN(C)C)C3` [Example 82, (7S)—N-[2-(Dimethylamino)ethyl]-4-[(6-methoxypyrazolo[1,5-a]pyridin-5-yl)amino]-5,6,7,8-tetrahydro[1]benzothieno[2,3-d]pyrimidine-7-carboxamide]: 0.003 µM; for `COc1cn2nccc2cc1Nc1ncnc2sc3c(c12)CC[C@H](C(=O)N(C)CCCN(C)C)C3` [Example 99, (7S)—N-[3-(Dimethylamino)propyl]-4-[(6-methoxypyrazolo[1,5-a]pyridin-5-yl)amino]-N-methyl-5,6,7,8-tetrahydro[1]benzothieno[2,3-d]pyrimidine-7-carboxamide]: 0.001 µM.
As to `O=C([C@H]1CCc2c(sc3ncnc(Nc4ccn5nccc5c4)c23)C1)N1CC(F)(F)C1` [Example 23, (3,3-Difluoroazetidin-1-yl)[(7S)-4-(pyrazolo[1,5-a]pyridin-5-ylamino)-5,6,7,8-tetrahydro[1]benzothieno[2,3-d]pyrimidin-7-yl]methanone], the IC50 is 0.023 µM.
For the compound `COCCNC(=O)[C@H]1CCc2c(sc3ncnc(Nc4cc5ccnn5cc4OC)c23)C1` [Example 84, (7S)—N-(2-Methoxyethyl)-4-[(6-methoxypyrazolo[1,5-a]pyridin-5-yl)amino]-5,6,7,8-tetrahydro[1]benzothieno[2,3-d]pyrimidine-7-carboxamide], the IC50 was found to be 0.003 µM.
The same measure for `COc1cn2nccc2cc1Nc1ncnc2sc3c(c12)CC[C@H](C(=O)N1CCC(N(C)CCN(C)C)CC1)C3` [Example 110]: below 0.001 µM.

Usually IC50 stands for the midpoint of a concentration-inhibition curve.
